From patent publication US9409975B2, “Antibody binding microbial heparin binding motif to retard or prevent microbial biofilm formation on implanted medical devices” (priority 2012, dated 2016)

Tested on: C. albicans
Test: Heparin-binding ELISA assay: C. albicans binding to solid-phase heparin, desulfated heparin analogs, chondroitin sulfate or dermatan sulfate
Assay type: cell-based, Candida albicans
Details: equimolar amounts with respect to heparin
Protocol: To measure the binding of C. albicans to solid-phase heparin, a heparin-binding ELISA assay was developed, as follows. A single colony of each C. albicans wild type or mutant strain from a YPD plate was inoculated into 3 ml YPD medium and incubated overnight at 30° C. with shaking at 225 rpm. Sigma heparin (fresh solution made daily), diluted to 25 units/ml in autoclaved, sterile-filtered PBS was added as 0.1 ml aliquots to each well of an allyl amine-coated 96-well heparin binding microtiter plate (BD Biosciences). The plate was incubated at room temperature overnight in the dark (50). In the morning, the plate was washed with acetate buffer (100 mM NaCl, […], 0.2% Tween 20, pH 7.2), incubated with 3% bovine serum albumin (BSA) in PBS at 30° C. for 1 hour, then washed with PBS. In the meantime, overnight cultures of C. albicans were subcultured by dilution to OD600 of 0.2 in 25 ml of YPD, and grown at 30° C. to mid-log phase (OD600 0.6-0.7). […] After 45 minutes, absorbance at 595 nm was read on a Beckman Coulter DTX 880. […]
The ELISA assay used a commercially available 96-well microtiter plate coated with polymerized allylamine (BD Biosciences) (27), in which wells were inoculated with 2.5 units (12.5 μg) heparin in 100 μl phosphate buffered saline (PBS) per well. […] The color change was read spectrophotometrically at absorbance of 595 nm.

Substance	binding of C. albicans versus binding to heparin, in words
chondroitin sulfate	equivalent
dermatan sulfate	reduced
